Here are results for four compounds from patent EP0908457B1, “3-(1,2-benzisothiazol- and isoxazol-5-Y1)-2,4(1H,3H)-pyrimidinedione or thione and 3-(1,2-benzisothiazol- and isoxazol-5-y1)-4(3H)-pyrimidinone or thione herbicidal agents” (BASF AKTIENGESELLSCHAFT, priority 1997, dated 1999).

Data set [1] has as its system Oryza sativa, (L.) Tebonnet. Nature of the data set: Rice tolerance to post-transplant applications under flooded paddy conditions (Example 187), ORYSAT (Rice, Tebonnet). The settings on record: rated three to four weeks after treatment.
Data set [2] deals with Monochoria vaginalis, Presl. Nature of the data set: Preemergence weed control under flooded paddy conditions, MOOVA (Monochoria). Note: meaning of each grade not given here. As to conditions: flooded paddy, rated three to four weeks after treatment. In kind it is in vivo.
Data set [3] relates to Cyperus serotinus, Rottb. Nature of the data set: Preemergence weed control under flooded paddy conditions, CYPSE (Flatsedge). Note: meaning of each grade not given here. The settings on record: rated three to four weeks after treatment. In kind it is in vivo.
Data set [4] relates to Cyperus iria. Nature of the data set: Preemergence weed control under flooded paddy conditions, CYPIR (Rice Flatsedge). Note: meaning of each grade not given here. It is filed as in vivo. The settings on record: flooded paddy, rated three to four weeks after treatment.
Data set [5] has as its system Sagittaria pygmaea, L. Nature of the data set: Preemergence weed control under flooded paddy conditions, SAGPY (Arrowhead (Pygmaea)). Note: meaning of each grade not given here. The settings on record: flooded paddy, rated three to four weeks after treatment. In kind it is in vivo.
For data set [6], the system named is Echinochloa oryzoides (Ard.) Fritsch. Nature of the data set: Preemergence weed control under flooded paddy conditions, ECHORC (Watergrass (Calif.)). Note: meaning of each grade not given here. It is filed as in vivo. As to conditions: flooded paddy, rated three to four weeks after treatment.
The mark [7] stands for this setting: 0.0313 kg/ha, preemergence weeds.
Where [8] appears, read: 0.0625 kg/ha, preemergence weeds.
Where [9] appears, read: 0.1250 kg/ha, preemergence weeds.
Setting [10] is: 0.2500 kg/ha, preemergence weeds.
The mark [11] stands for this setting: Rate 0.0320 kg/ha, preemergence weeds.
[12] abbreviates: Rate 0.0620 kg/ha, preemergence weeds.
The mark [13] stands for this setting: Rate 0.1250 kg/ha, preemergence weeds.
The mark [14] stands for this setting: Rate 0.2500 kg/ha, preemergence weeds.
Setting [15] is: Rate 0.0320 kg/ha, preemergence.
[16] abbreviates: Rate 0.0620 kg/ha, preemergence.
Where [17] appears, read: Rate 0.1250 kg/ha, preemergence.
[18] abbreviates: Rate 0.2500 kg/ha, preemergence.

Take `Cc1ccc(OCC(=O)OCC#Cc2ccccc2)c(-c2nsc3ccc(-n4c(=O)cc(C(F)(F)F)n(C)c4=O)cc23)c1` [Example 73, 3-Phenyl-2-propynyl {{2-{5-[3,6-dihydro-3-methyl-2,6-dioxo-4-(trifluoromethyl)-1(2H)-pyrimidinyl]-1,2-benzisothiazol-3-yl}-p-tolyl}oxy}acetate]: the “herbicidal effect rating, ORYSAT (rice tolerance)” value came out at 2.5 in data set [1] (0.0313 kg/ha), 3.0 in data set [1] (0.0625 kg/ha), 4.0 in data set [1] (0.1250 kg/ha) and 6.0 in data set [1] (0.2500 kg/ha). For the same compound, the “herbicidal effect rating, MOOVA” value in data set [2] (0.0313 kg/ha, preemergence) is on record as 9.0; in data set [2] (0.0625 kg/ha, preemergence), 9.0; in data set [2] (0.1250 kg/ha, preemergence), 9.0; in data set [2] (0.2500 kg/ha, preemergence), 9.0. In addition, the “herbicidal effect rating, CYPSE” value stood at 0.0 in data set [3] (0.0313 kg/ha, preemergence); 0.0 in data set [3] (0.0625 kg/ha, preemergence); 2.0 in data set [3] (0.1250 kg/ha, preemergence); 9.0 in data set [3] (0.2500 kg/ha, preemergence). The “herbicidal effect rating, CYPIR” value was found to be 2.0 in data set [4] (0.0313 kg/ha, preemergence); 6.0 in data set [4] (0.0625 kg/ha, preemergence); 8.0 in data set [4] (0.1250 kg/ha, preemergence); 8.0 in data set [4] (0.2500 kg/ha, preemergence). Further, the “herbicidal effect rating, SAGPY” value in data set [5] (0.0313 kg/ha, preemergence) is recorded as 0.0; in data set [5] (0.0625 kg/ha, preemergence) it was 0.0; in data set [5] (0.1250 kg/ha, preemergence), 0.0; in data set [5] (0.2500 kg/ha, preemergence), 2.0. Moreover, the “herbicidal effect rating, ECHORC” value in data set [6] (0.0313 kg/ha, preemergence) is 8.0; in data set [6] (0.0625 kg/ha, preemergence) it was 6.5; in data set [6] (0.1250 kg/ha, preemergence), 9.0; in data set [6] (0.2500 kg/ha, preemergence), 9.0.
On to `Cn1c(C(F)(F)F)cc(=O)n(-c2ccc3snc(NS(C)(=O)=O)c3c2)c1=O` [Example 117, N-{5-[3,6-Dihydro-3-methyl-2,6-dioxo-4-(trifluoromethyl)-1(2H)-pyrimidinyl]-1,2-benzisothiazol-3-yl}methanesulfonamide], for which the “herbicidal effect rating, ORYSAT (rice tolerance)” value in data set [1] (0.0313 kg/ha), in data set [1] (0.0625 kg/ha), in data set [1] (0.1250 kg/ha) and in data set [1] (0.2500 kg/ha) was 0.0 throughout. Also, the “herbicidal effect rating, MOOVA” value in data set [2] (setting [7]) is listed as 0.0; in data set [2] (setting [8]) it was 0.0; in data set [2] (setting [9]) it was 2.0; in data set [2] (setting [10]), 4.0. Besides, the “herbicidal effect rating, CYPSE” value in data set [3] (setting [7]), in data set [3] (setting [8]), in data set [3] (setting [9]) and in data set [3] (setting [10]) was 0.0 in each case. Also, the “herbicidal effect rating, CYPIR” value in data set [4] (setting [7]), in data set [4] (setting [8]), in data set [4] (setting [9]) and in data set [4] (setting [10]) was 0.0 in each case. Besides, the “herbicidal effect rating, SAGPY” value in data set [5] (setting [7]), in data set [5] (setting [8]), in data set [5] (setting [9]) and in data set [5] (setting [10]) was 0.0 in each case. The “herbicidal effect rating, ECHORC” value in data set [6] (setting [7]), in data set [6] (setting [8]), in data set [6] (setting [9]) and in data set [6] (setting [10]) was 0.0 throughout.
On to `COc1cccc(-c2nsc3ccc(-n4c(=O)cc(C(F)(F)F)n(C)c4=O)cc23)c1` [Example 301, 2,4(1H,3H)-Pyrimidinedione, 3-[3-(m-methoxyphenyl)-1,2-benzisothiazol-5-yl]-1-methyl-6-(trifluoromethyl)-], for which the “herbicidal effect rating ORYSAT” value in data set [1] (Rate 0.0320 kg/ha) turned out to be 1.0; in data set [1] (Rate 0.0620 kg/ha), 1.0; in data set [1] (Rate 0.1250 kg/ha) it was 2.5; in data set [1] (Rate 0.2500 kg/ha), 3.5. In addition, the “herbicidal effect rating, MOOVA” value in data set [2] (setting [11]), in data set [2] (setting [12]), in data set [2] (setting [13]) and in data set [2] (setting [14]) was 9.0 in each case. Also, the “herbicidal effect rating, CYPSE” value in data set [3] (setting [11]), in data set [3] (setting [12]), in data set [3] (setting [13]) and in data set [3] (setting [14]) was 9.0 throughout. In addition, the “herbicidal effect rating, CYPIR” value in data set [4] (setting [11]), in data set [4] (setting [12]), in data set [4] (setting [13]) and in data set [4] (setting [14]) was 9.0 each time. In addition, the “herbicidal effect rating, SAGPY” value in data set [5] (setting [11]) turned out to be 2.0; in data set [5] (setting [12]), 4.5; in data set [5] (setting [13]) it was 7.0; in data set [5] (setting [14]) it was 8.5. The “herbicidal effect rating, ECHORC” value in data set [6] (setting [11]), in data set [6] (setting [12]), in data set [6] (setting [13]) and in data set [6] (setting [14]) was 9.0 each time.
As to `Cn1c(C(F)(F)F)cc(=O)n(-c2ccc3snc(C(C#N)=Cc4ccc(O)cc4)c3c2)c1=O` [Example 600, 1,2-Benzisothiazole-3-acetonitrile, 5-[3,6-dihydro-3-methyl-2,6-dioxo-4-(trifluoromethyl)-1(2H)-pyrimidinyl]-alpha-(p-hydroxybenzylidene)-], the “herbicidal effect rating ORYSAT” value amounted to 3.0 in data set [1] (Rate 0.0320 kg/ha), 3.0 in data set [1] (Rate 0.0620 kg/ha), 4.0 in data set [1] (Rate 0.1250 kg/ha) and 4.0 in data set [1] (Rate 0.2500 kg/ha). Moreover, the “herbicidal effect rating, MOOVA” value in data set [2] (setting [15]) came out at 6.0; in data set [2] (setting [16]) it was 6.0; in data set [2] (setting [17]), 7.0; in data set [2] (setting [18]), 7.0. Besides, the “herbicidal effect rating, CYPSE” value in data set [3] (setting [15]), in data set [3] (setting [16]) and in data set [3] (setting [18]) was 0.0 throughout. Further, the “herbicidal effect rating, CYPIR” value in data set [4] (setting [15]) amounted to 0.0; in data set [4] (setting [16]), 0.0; in data set [4] (setting [17]), 0.0; in data set [4] (setting [18]) it was 2.0. Besides, the “herbicidal effect rating, SAGPY” value in data set [5] (setting [15]), in data set [5] (setting [16]), in data set [5] (setting [17]) and in data set [5] (setting [18]) was 0.0 throughout. Also, the “herbicidal effect rating, ECHORC” value in data set [6] (setting [15]) was 0.0; in data set [6] (setting [16]) it was 0.0; in data set [6] (setting [17]), 0.0; in data set [6] (setting [18]), 2.0.
